The record followed here is patent US10681911B2, “Anthelminthic composition” (AgResearch Limited, priority 2016, dated 2020).

The format of data set [1] is physicochemical.
For data set [2], the system named is Haemonchus controtus L3. Briefly: Petri-dish laboratory study of efficacy against L3. The settings on record: for Measured efficacy: 24 ml solution, live L3 recovered by Baermann funnel, 10 replicates; for effectiveness in killing L3: result in words.
The subject of data set [3] is Haemonchus contortus L3. The settings on record: in vivo.
Data set [4] has as its system nematode egg and larval stages in dung. Briefly: Mini dung egg hatch-survival assay. The settings on record: treatments applied to fresh dung on days 0 through 7, harvested days 12-16. As to the method: All the dung samples were then left until day 12 when the first replicates were harvested. The last replicate was sampled on day 16. Hatched larvae were separated from the dung and numerated via microscopic examination. Town supply tap water was used for solution preparation and used as the reference control treatment. Sodium hypochlorite was added to tap-water to form a bleach solution containing 5% w/v NaOCl.

In data set [5] the test system is eggs of free-living parasitic nematodes. Nature of the data set: Egg hatch assay. As to the method:
Approximately 125 eggs were place in 24 well plate wells and treatments applied. After 24 hours, unhatched eggs and larvae were numerated by microscopic examination. Town supply tap water was used for solution preparation and used as the reference control treatment Sodium hypochlorite was added to tap-water to form a bleach solution containing 5% w/v NaOCl […]

As for `[Ca+2].[OH-].[OH-]` [Ca(OH)2 0.05%, calcium hydroxide], in data set [1], the “pH 0” value is reported as 11.6. The Measured efficacy in data set [2] (listed as Ca(OH)2 0.050%) worked out at 69%.
On to `[Ca+2].[OH-].[OH-]` [Ca(OH)2 0.025%, calcium hydroxide], for which the “pH 0” value in data set [1] was found to be 11.3. In addition, in data set [2], the Measured efficacy came to 43%.
Regarding ammonium nitrate [NH4NO3 3.5%], the Measured efficacy in data set [2] is on record as 12%.
For the compound `[Ca+2].[OH-].[OH-]` [Ca(OH)2 0.1%, calcium hydroxide], in data set [1], the “pH 0” value was 12.0. For the same compound, in data set [2] (listed as Ca(OH)2 0.100%), the Measured efficacy amounted to 93%. Besides, in data set [2], the “effectiveness in killing L3” value is recorded as “effective in killing L3”. For the same compound, in data set [3], the “impact on L3 numbers in faeces” value is on record as “Neither ammonium nitrate nor calcium hydroxide applied alone or in combination had any impact on L3 numbers in faeces” and the “impact on L3 numbers on pasture” value is “neither ammonium nitrate nor calcium hydroxide applied alone had any impact on L3 numbers on pasture”.
As to `OCl` [Bleach, Sodium hypochlorite], the “impact on nematode development in dung” value in data set [4] was “small impact on all stage of the nematode development from the egg through to the L1, 2 and 3 stages”. Moreover, in data set [5] (after 24 hours, result in words), the “effect on eggs and egg hatching” value is reported as “destroyed all the eggs”. Also, the “Average of % hatch” value in data set [5] (approximately 125 eggs per well, after 24 hours) stood at 0.0%. In data set [5] (approximately 125 eggs per well, larvae counted after 24 hours), the Average of larvae stood at 0.0. In data set [5] (approximately 125 eggs per well, unhatched eggs counted after 24 hours), this compound displayed an Average of eggs of 0.3.
`[Ca+2].[OH-].[OH-]` [Ca(OH)2 0.013%, calcium hydroxide]: in data set [1], the “pH 0” value turned out to be 11.0. In addition, the Measured efficacy in data set [2] turned out to be 28%.
As to ammonium nitrate [NH4NO3 1.75%], the Measured efficacy in data set [2] is given as −39%.
On the same count and under the same terms, the same measure for ammonium nitrate [NH4NO3 7%]: 72%.
For ammonium nitrate [NH4NO3 13.5%], in data set [2], the Measured efficacy is listed as 97% and the “effectiveness in killing L3” value was “effective in killing L3”.
